Read-outs that look alike come from different tables or passages of the source.

The target in assay [1] is T1, human PI3Kbeta p110 catalytic subunit (Rat-1 pBABEpuro Myr-HA-hp110 beta) (Homo sapiens, UniProt P42338).
T1 construct: Myr (myristoylation signal) (N); HA (N); expressed in transfected cells; host or cells: Rat-1
Description: Cellular assay PI3Kbeta (p-Akt(S473) SureFire, Rat-1_PI3beta cells). It counts as cell-based. An excerpt:
(§1) AlphaScreen (Amplified Luminescent Proximity Homogeneous Assay, ALPHA, Perkin Elmer) is a non-radioactive bead-based proximity assay technology to study biomolecular interactions in a homogenous microtiter plate format. The brand name SureFire denotes AlphaScreen assays that are adapted to quantify the phosphorylation of endogenous cellular proteins in cell lysates, by using matched antibody pairs, which consist of an anti-phospho-kinase and an anti-kinase antibody. The assay allows characterization of kinase signaling in cells as well as measurement of kinase inhibitor effects. The AlphaScreen technology provides several advantages over standard assay techniques such as ELISA, as it avoids time-consuming washing procedures and reduces plate handling. Furthermore, it is miniaturizable at least to a 384-well format and provides sensitivity down to the femtomolar range, dependent on the affinity of the antibodies included in the individual AlphaScreen SureFire assay kit. High sensitivity is reached by an intrinsic amplification mechanism, which involves production of singlet oxygen molecules. SureFire assay kits are commercially available for specific targets and include pairs of validated antibodies (PerkinElmer). This report describes common procedures applied for AlphaScreen SureFire assays and respective semi-automated steps for routine kinase inhibitor profiling in cell-based assays.
(§2) The Rat-1 cell lines stably overexpressing activated PI3K class I isoforms Rat-1 pBABEpuro Myr-HA-hp110 delta (Rat-1_PI3Kdelta) and Rat-1 pBABEpuro Myr-HA-hp110alpha (Rat-1_PI3Kalpha) and Rat-1 pBABEpuro Myr-HA-hp110 beta (Rat-1_PI3beta) were prepared as described (Maira S M, Stauffer F, Brueggen J, Furet P, Schnell C, Fritsch C, Brachmann S, Chène P, de Pover A, Schoemaker K, Fabbro D, Gabriel D, Simonen M, Murphy L, Finan P, Sellers W, García-Echeverría C (2008), Mol Cancer Ther. 7:1851-63 and Maira S M, Pecchi S, Brueggen J, Huh K, Schnell C, Fritsch C, Nagel T, Wiesmann M, Brachmann S, Dorsch M, Chène P, Schoemaker K, De Pover A, Menezes D, Fabbro D, Sellers W, García-Echeverría C, Voliva C F (2011), Mol. Cancer Ther., accepted). All cell lines were cultivated in complete growth medium (DMEM high glucose, 10% (v/v) fetal bovine serum, 1% (v/v) MEM NEAA, 10 mM HEPES, 2 mM L-glutamine, puromycin (10 μg/mL for Rat-1_PI3Kdelta and Rat-1_PI3Kalpha, 4 ug/mL for Rat-1_PI3beta), 1% (v/v) Pen/Strep) to 90% confluency at 37° C./5% CO2/90% humidity in a humidified CO2 incubator and were split twice a week.
(§3) The following materials were used for p-AKT(S473) detection in Rat-1 cell lysates: Dulbecco's modified Eagle's medium (DMEM) high glucose (Gibco Invitrogen, Basel, Switzerland, Cat. No. 41965), Heat Inactivated Fetal Bovine Serum, Qualified (HI FBS; Gibco Invitrogen, Basel, Switzerland, Lot. No. 16140), MEM non essential amino acids (NEAA; Gibco Invitrogen, Basel, Switzerland, Cat. No. 11140), HEPES (Gibco Invitrogen, Basel, Switzerland, Cat. No. 15630), Penicillin/Streptomycin (Pen/Strep, 100×; Gibco Invitrogen, Basel, Switzerland, Cat. No. 15140-122), L-Glutamine (Gibco Invitrogen, Basel, Switzerland, Cat. No. 25030), Puromycin (Sigma Aldrich, Buchs, Switzerland, Cat. No. P9620), DMSO (MERCK, Dietikon, Switzerland, Cat. No. 8.02912.2500), H2O, MilliQ-H2O unless otherwise stated (MILLIPORE QGARDOOR1, Millipore, Zug, Switzerland), Bovine serum albumine (BSA; Sigma Aldrich, Buchs, Switzerland Cat. No. A8412), SureFire p-Akt 1/2 (Ser473) Assay Kit (PerkinElmer, Schwerzenbach, Switzerland, Cat. No. TGRAS50K).
(§4) The p-Akt(S473) SureFire assay measures the phosphorylation of endogenous cellular Akt 1/2 at Ser473 in cell lysates. Using Rat-1 cells stably expressing myr-HA-tagged versions of the human PI3Kdelta, PI3Kalpha, or PI3Kbeta p110 catalytic subunit isoforms, the assay was developed as a two-plate protocol in a 384-well format.

Assay [2] addresses T2, human PI3Kdelta p110 catalytic subunit (Rat-1 pBABEpuro Myr-HA-hp110 delta) (Homo sapiens, UniProt O00329).
T2 construct: Myr (myristoylation signal) (N); HA (N); expressed in transfected cells; host or cells: Rat-1
Description: Cellular assay PI3Kdelta (p-Akt(S473) SureFire, Rat-1_PI3Kdelta cells). It counts as cell-based. The following applies: 1 h compound treatment, read-out: Rat1-PI3Kd/ IC50.
Source text: as §1, §2, §3, §4

The mark [3] stands for this setting: p-Akt(S473), 1 h compound treatment, read-out: Rat1-PI3Kb/ IC50.

T2 sequence (O00329 whole entry): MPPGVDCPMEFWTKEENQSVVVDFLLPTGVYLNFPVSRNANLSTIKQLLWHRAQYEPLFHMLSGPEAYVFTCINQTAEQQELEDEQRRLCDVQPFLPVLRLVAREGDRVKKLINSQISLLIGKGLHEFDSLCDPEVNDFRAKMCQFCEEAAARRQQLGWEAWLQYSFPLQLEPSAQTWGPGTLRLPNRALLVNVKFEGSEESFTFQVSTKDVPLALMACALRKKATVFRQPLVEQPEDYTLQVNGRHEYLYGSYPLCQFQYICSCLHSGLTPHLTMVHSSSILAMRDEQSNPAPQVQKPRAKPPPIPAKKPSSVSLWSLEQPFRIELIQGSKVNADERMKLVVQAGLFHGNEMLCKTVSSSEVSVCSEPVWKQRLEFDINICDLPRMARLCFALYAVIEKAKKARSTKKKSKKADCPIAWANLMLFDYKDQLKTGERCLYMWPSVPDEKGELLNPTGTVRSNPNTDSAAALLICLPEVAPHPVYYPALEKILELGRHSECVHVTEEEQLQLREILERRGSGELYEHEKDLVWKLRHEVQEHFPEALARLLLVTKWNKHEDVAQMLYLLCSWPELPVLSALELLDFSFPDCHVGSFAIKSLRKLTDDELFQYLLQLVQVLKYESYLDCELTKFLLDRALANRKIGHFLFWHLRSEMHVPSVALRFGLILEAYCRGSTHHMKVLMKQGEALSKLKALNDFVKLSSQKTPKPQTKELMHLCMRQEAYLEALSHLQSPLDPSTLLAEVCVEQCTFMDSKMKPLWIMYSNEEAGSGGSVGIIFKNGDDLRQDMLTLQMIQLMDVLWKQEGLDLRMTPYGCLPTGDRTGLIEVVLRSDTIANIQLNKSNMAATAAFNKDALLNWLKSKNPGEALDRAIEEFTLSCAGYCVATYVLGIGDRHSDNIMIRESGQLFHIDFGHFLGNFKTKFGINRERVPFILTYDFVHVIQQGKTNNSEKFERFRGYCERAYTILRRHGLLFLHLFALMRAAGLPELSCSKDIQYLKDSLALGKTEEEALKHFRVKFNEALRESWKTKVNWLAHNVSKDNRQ
T2 sequence (Q63787 whole entry partner): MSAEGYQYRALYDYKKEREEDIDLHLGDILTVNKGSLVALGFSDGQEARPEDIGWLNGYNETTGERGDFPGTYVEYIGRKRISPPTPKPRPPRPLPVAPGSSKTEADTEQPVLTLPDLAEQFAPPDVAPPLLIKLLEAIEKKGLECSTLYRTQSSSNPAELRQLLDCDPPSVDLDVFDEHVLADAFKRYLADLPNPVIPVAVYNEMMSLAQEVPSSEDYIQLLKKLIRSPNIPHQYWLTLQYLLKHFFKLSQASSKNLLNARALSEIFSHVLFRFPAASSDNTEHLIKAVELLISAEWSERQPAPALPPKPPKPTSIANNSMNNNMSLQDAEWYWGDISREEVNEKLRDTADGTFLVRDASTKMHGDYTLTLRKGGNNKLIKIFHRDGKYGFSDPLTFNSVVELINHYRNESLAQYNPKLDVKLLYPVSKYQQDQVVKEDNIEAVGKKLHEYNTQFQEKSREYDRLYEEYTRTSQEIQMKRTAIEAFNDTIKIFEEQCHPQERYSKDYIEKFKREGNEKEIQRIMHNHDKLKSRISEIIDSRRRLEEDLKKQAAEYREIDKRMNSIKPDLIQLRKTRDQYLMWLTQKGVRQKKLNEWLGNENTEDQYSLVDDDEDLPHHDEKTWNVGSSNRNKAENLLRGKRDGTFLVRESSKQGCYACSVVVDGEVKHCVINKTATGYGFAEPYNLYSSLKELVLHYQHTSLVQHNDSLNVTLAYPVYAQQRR
T1 sequence (P42338 whole entry): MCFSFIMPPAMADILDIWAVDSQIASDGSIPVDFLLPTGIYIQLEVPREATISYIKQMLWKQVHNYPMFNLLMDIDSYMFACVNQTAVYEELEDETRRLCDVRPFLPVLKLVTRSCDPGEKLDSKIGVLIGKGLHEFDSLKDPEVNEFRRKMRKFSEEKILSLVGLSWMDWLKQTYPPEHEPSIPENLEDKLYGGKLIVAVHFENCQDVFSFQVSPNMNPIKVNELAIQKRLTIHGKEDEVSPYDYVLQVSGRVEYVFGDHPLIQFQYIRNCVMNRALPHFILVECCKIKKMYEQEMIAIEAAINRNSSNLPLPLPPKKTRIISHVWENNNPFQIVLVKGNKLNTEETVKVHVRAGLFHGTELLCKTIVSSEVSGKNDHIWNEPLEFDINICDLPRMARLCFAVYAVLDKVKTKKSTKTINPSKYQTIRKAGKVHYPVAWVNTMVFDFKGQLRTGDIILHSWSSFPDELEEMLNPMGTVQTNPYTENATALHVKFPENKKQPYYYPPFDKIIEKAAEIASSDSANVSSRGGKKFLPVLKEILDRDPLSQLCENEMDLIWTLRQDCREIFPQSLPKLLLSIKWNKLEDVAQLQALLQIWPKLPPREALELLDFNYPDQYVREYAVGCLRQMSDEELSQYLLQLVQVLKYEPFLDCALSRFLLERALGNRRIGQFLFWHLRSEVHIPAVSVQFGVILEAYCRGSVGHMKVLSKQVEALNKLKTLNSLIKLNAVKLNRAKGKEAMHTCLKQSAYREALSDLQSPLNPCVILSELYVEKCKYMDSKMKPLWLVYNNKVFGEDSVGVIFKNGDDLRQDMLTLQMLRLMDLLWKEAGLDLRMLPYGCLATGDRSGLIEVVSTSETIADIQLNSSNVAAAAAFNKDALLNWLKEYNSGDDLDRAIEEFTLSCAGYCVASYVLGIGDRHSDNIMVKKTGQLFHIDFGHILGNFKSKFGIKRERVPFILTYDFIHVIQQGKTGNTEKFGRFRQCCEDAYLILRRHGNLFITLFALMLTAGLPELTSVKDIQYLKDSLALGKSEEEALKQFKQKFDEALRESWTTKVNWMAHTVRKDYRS
T1 sequence (Q63787 whole entry partner): as the sequence (Q63787 whole entry partner) above

Take `C[C@H]1CN(c2cc(-c3cnc(N)nc3C(F)(F)F)nc(N3CCOCC3)n2)C(=O)O1` [Example 16, (S)-3-(2′-Amino-2-morpholin-4-yl-4′-trifluoromethyl-[4,5′]bipyrimidinyl-6-yl)-5-methyl-oxazolidin-2-one]: the figures for the IC50 in assay [1] (setting [3]) and in assay [2] were 0.16 µM and 0.087 µM, respectively.

For the molecule `C[C@H]1[C@@H](CCO)OC(=O)N1c1cc(-c2cnc(N)nc2C(F)(F)F)nc(N2CCOCC2)n1` [Example 23, (4S,5R)-3-(2′-Amino-2-morpholino-4′-(trifluoromethyl)-[4,5′-bipyrimidin]-6-yl)-5-(2-hydroxyethyl)-4-methyloxazolidin-2-one], the figures for the IC50 in assay [1] (setting [3]) and in assay [2] were 0.027 µM and 0.016 µM, respectively.

For the molecule `Nc1ncc(-c2cc(N3C[C@@H](CO)OC3=O)nc(N3CCOCC3)n2)c(C(F)(F)F)n1` [Example 14, (S)-3-(2′-Amino-2-morpholin-4-yl-4′-trifluoromethyl-[4,5′]bipyrimidinyl-6-yl)-5-hydroxymethyl-oxazolidin-2-one], the IC50 in assay [1] (setting [3]) came to 0.157 µM; in assay [2] it was 0.101 µM.

For the molecule `C[C@H]1C(CC(C)(C)O)OC(=O)N1c1cc(-c2cnc(N)nc2C(F)(F)F)nc(N2CCOCC2)n1` (mixture of isomers) [Example 26, (4S,5R)- and (4S,5S)-3-(2′-amino-2-morpholino-4′-(trifluoromethyl)-[4,5′-bipyrimidin]-6-yl)-5-(2-hydroxy-2-methylpropyl)-4-methyloxazolidin-2-one], the IC50 amounted to 0.075 µM in assay [1] (setting [3]) and 0.011 µM in assay [2].

In the case of `C[C@H]1COC(=O)N1c1cc(-c2cnc(N)nc2C(F)(F)F)nc(N2CCOCC2)n1` [Example 1, (S)-3-(2′-Amino-2-morpholin-4-yl-4′-trifluoromethyl-[4,5′]bipyrimidinyl-6-yl)-4-methyl-oxazolidin-2-one], the IC50 in assay [1] (fourth measurement, outlier, read-out: Rat1-PI3Kb IC50, fourth measurement (footnote)) was found to be 3.9 µM; in assay [1] (setting [3]), 0.065 µM; in assay [2] it was 0.027 µM.

For `[2H]C1([2H])OC([2H])([2H])C([2H])([2H])N(c2nc(-c3cnc(N)nc3C(F)(F)F)cc(N3C(=O)OC[C@@H]3C)n2)C1([2H])[2H]` [Example 17, (S)-3-(2′-amino-2-D8-morpholino-4′-(trifluoromethyl)-[4,5′-bipyrimidin]-6-yl)-4-methyloxazolidin-2-one], the figures for the IC50 in assay [1] (setting [3]) and in assay [2] were 0.171 µM and 0.155 µM, respectively.

As to `C[C@@H](O)C[C@H]1OC(=O)N(c2cc(-c3cnc(N)nc3C(F)(F)F)nc(N3CCOCC3)n2)[C@H]1C` (single isomer, unassigned) [Example 24], the IC50 in assay [1] (setting [3]) is 0.034 µM; in assay [2] it was 0.007 µM.

`Nc1ncc(-c2cc(N3CCOC3=O)nc(N3CCOCC3)n2)c(C(F)(F)F)n1` [Example 11, 3-(2′-Amino-2-morpholin-4-yl-4′-trifluoromethyl-[4,5′]bipyrimidinyl-6-yl)-oxazolidin-2-one, reference compound]: the IC50 in assay [1] (setting [3]) turned out to be 0.184 µM; in assay [2], 0.138 µM.

Turning to `C[C@H]1COCCN1c1nc(-c2cnc(N)nc2C(F)(F)F)cc(N2C(=O)OC[C@@H]2C)n1` [Example 13, (S)-3-[2′-Amino-2-((S)-3-methyl-morpholin-4-yl)-4′-trifluoromethyl-[4,5′]bipyrimidinyl-6-yl]-4-methyl-oxazolidin-2-one], the results for the IC50 in assay [1] (setting [3]) and in assay [2] were 0.24 µM and 0.042 µM, respectively.

As for `C[C@H]1[C@H](CO)OC(=O)N1c1cc(-c2cnc(N)nc2C(F)(F)F)nc(N2CCOCC2)n1` [Example 15, (4S,5R)-3-(2′-Amino-2-morpholin-4-yl-4′-trifluoromethyl-[4,5′]bipyrimidinyl-6-yl)-5-hydroxymethyl-4-methyl-oxazolidin-2-one], the IC50 was determined as 0.114 µM in assay [1] (setting [3]) and 0.053 µM in assay [2].

In the case of `CC1(CO)COC(=O)N1c1cc(-c2cnc(N)nc2C(F)(F)F)nc(N2CCOCC2)n1` (racemic) [Example 3, 3-(2′-amino-2-morpholino-4′-(trifluoromethyl)-4,5′-bipyrimidin-6-yl)-4-(hydroxymethyl)-4-methyloxazolidin-2-one], the IC50 in assay [1] (setting [3]) turned out to be 0.193 µM; in assay [2] it was 0.073 µM.

`CC1(C)OC(=O)N(c2cc(-c3cnc(N)nc3C(F)(F)F)nc(N3CCOCC3)n2)[C@H]1CO` [Example 2, (S)-3-(2′-Amino-2-morpholin-4-yl-4′-trifluoromethyl-[4,5′]bipyrimidinyl-6-yl)-4-hydroxymethyl-5,5-dimethyl-oxazolidin-2-one]: the IC50 in assay [1] (setting [3]) is 0.278 µM; in assay [2], 0.081 µM.

In the case of `Nc1ncc(-c2cc(N3C(=O)OC[C@@H]3CCO)nc(N3CCOCC3)n2)c(C(F)(F)F)n1` [Example 9, (S)-3-(2′-Amino-2-morpholin-4-yl-4′-trifluoromethyl-[4,5′]bipyrimidinyl-6-yl)-4-(2-hydroxy-ethyl)-oxazolidin-2-one], the IC50 in assay [1] (setting [3]) was found to be 0.226 µM; in assay [2], 0.078 µM.

As to `Nc1ncc(-c2cc(N3C(=O)O[C@H]4CCCC[C@@H]43)nc(N3CCOCC3)n2)c(C(F)(F)F)n1` [Example 4, (3aS,7aS)-3-(2′-Amino-2-morpholin-4-yl-4′-trifluoromethyl-[4,5′]bipyrimidinyl-6-yl)-hexahydro-benzooxazol-2-one], the IC50 in assay [1] (setting [3]) was 0.183 µM; in assay [2], 0.013 µM.

As to `Nc1ncc(-c2cc(N3C(=O)O[C@H]4COC[C@H]43)nc(N3CCOCC3)n2)c(C(F)(F)F)n1` [Example 21, (3aR,6aR)-3-(2′-amino-2-morpholino-4′-(trifluoromethyl)-[4,5′-bipyrimidin]-6-yl)-tetrahydrofuro[3,4-d]oxazol-2(3H)-one], the IC50 in assay [1] (setting [3]) was found to be 0.046 µM; in assay [2] it was 0.061 µM.

Take `Nc1ncc(-c2cc(N3C(=O)OC4C(O)CCC43)nc(N3CCOCC3)n2)c(C(F)(F)F)n1` (single isomer, unassigned) [Example 22A]: the IC50 turned out to be 0.06 µM in assay [1] (setting [3]) and 0.027 µM in assay [2].

Regarding `C[C@H]1OC(=O)N(c2cc(-c3cnc(N)nc3C(F)(F)F)nc(N3CCOCC3)n2)[C@H]1CO` [Example 18, (4S,5R)-3-(2′-Amino-2-morpholin-4-yl-4′-trifluoromethyl-[4,5′]bipyrimidinyl-6-yl)-4-hydroxymethyl-5-methyl-oxazolidin-2-one], the results for the IC50 in assay [1] (setting [3]) and in assay [2] were 0.088 µM and 0.028 µM, respectively.

Consider `C[C@@H]1OC(=O)N(c2cc(-c3cnc(N)nc3C(F)(F)F)nc(N3CCOCC3)n2)[C@H]1CO` [Example 6], for which the IC50 in assay [1] (setting [3]) turned out to be 0.147 µM; in assay [2], 0.037 µM.

As to `Nc1ncc(-c2cc(N3C[C@H](CO)OC3=O)nc(N3CCOCC3)n2)c(C(F)(F)F)n1` [Example 20, (R)-3-(2′-Amino-2-morpholin-4-yl-4′-trifluoromethyl-[4,5′]bipyrimidinyl-6-yl)-5-hydroxymethyl-oxazolidin-2-one], the IC50 is 0.124 µM in assay [1] (setting [3]) and 0.111 µM in assay [2].

As to `COC[C@H]1COC(=O)N1c1cc(-c2cnc(N)nc2C(F)(F)F)nc(N2CCOCC2)n1` [Example 5, (S)-3-(2′-Amino-2-morpholin-4-yl-4′-trifluoromethyl-[4,5′]bipyrimidinyl-6-yl)-4-methoxymethyl-oxazolidin-2-one], the values for the IC50 in assay [1] (setting [3]) and in assay [2] were 0.314 µM and 0.023 µM, respectively.
